# In patent US12728111B2, “Electrophilic compounds and electrophilic prodrugs for treating aneurysm” (University of Pittsburgh—Of the Commonwealth System of …, priority 2020, dated 2026):
# What was measured:
# [1] = system: Vcam1, MCP1, Icam1 gene expression in suprarenal aorta; assay: Real-time PCR gene expression in mouse suprarenal aorta; format: in vivo
# Source text: FIG. 2. […] (A) Quantification of gene expression levels in the mice suprarenal aorta region by real-time PCR (n=3 to 4). (B, C) Serum cytokines levels measured by ELISA (n=8 to 11). (D) FACS of single cells isolated from the mice suprarenal aorta region. Each sample is the pool of cells from three mice (n=3). (E, F) Quantification of the percentage of CD45+ leukocytes and CD64+, CD11c+M1-like macrophages in total cells from the FACS analysis. Ordinary one-way ANOVA followed by Tukey's test was performed for (A), (E) and (F). For ELISA in (B) and (C), to avoid the effect of the non-detected data point, a non-parametric Kruskal-Wallis test followed by Dunn's multiple comparisons was performed by adding zero to the missing data point. Data presented as mean±SEM. A p<0.05 for both the main test and post hoc test was considered statistically significant.
# Ten weeks old male C57BL/6J mice were purchased from The Jackson Laboratory. The murine AAA model induced by AngII/PCSK9 gain-of-function mutation is well-established. After acclimation for 1 week, mice were fed a western diet (TD.88137, Envigo) and intraperitoneally injected with 2×1011 genomic copies of AAV-PCSK9.D377Y (AAV serotype 8, Penn Vector Core). Two weeks later, each mouse was subcutaneously implanted with two osmotic pumps (Model #2004, Alzet). One was loaded with AngII (#H-1706, Bachem), releasing at a rate of 1,500ng/kg/min, while the other one was loaded with PEG-400, OA or NO2—OA at a delivery rate of 5 mg/kg/day for OA or NO2—OA. After 4-weeks infusion, mice were euthanized and the maximal outer diameter of the suprarenal aorta was assessed with a digital caliper by a third person blinded to the treatment. Suprarenal aortas with a maximal diameter ≥50% larger than standard size (≥1.2 mm) were considered as abdominal aortic aneurysms. […]
# Mice suprarenal aortas were collected after the measurement of their diameter. […] Gene expression was quantified in triplicates by quantitative real-time PCR (qPCR) using IQ SYBR Green Supermix (#1708882, Bio-Rad) with the indicated gene primers.
# EP4 Gs-coupled receptor = biological target: T1, EP4 Gs-coupled receptor (Homo sapiens, UniProt P35408); assay: cAMP HTRF assay in 293T cells overexpressing EP4; format: cell-based; settings: read-out: best-fit IC50, reduction of PGE2-induced recruitment of cAMP
# T1 construct: expressed in transfected cells; host or cells: 293T cells
# Experimental: (§1) FIG. 4. NO2—OA inhibits PGE2-dependent EP4 cAMP downstream signaling. (A) Three parameters nonlinear regression of EP4 global fitting dose-response curve. […] (B) HTRF assay of cAMP-Gs coupled receptor. […] (D) Representative figure of gelatin zymography indicating MMP 2/9 activity. BMDMs were incubated with L-902,688 (100 nM) plus vehicle, OA (2.5 μM) or NO2—OA (2.5 μM) for 12 h, and MMP 2&9 activity was measured by gelatin zymography. For (A) and (B), three or four parameters, global or separate fitting, constraints, and the significance of EC50 were determined in Prism. Data presented as mean±SEM. A p<0.05 was considered statistically significant.
# Cells at 80% density were incubated on plates coated with transfection complex containing human EP4 receptors and a cAMP response element-regulated secreted alkaline phosphatase (SEAP) reporter. Activation of EP4 was quantified by adding a luminance-based alkaline phosphatase substrate and read in a chemiluminescence plate reader relative to the kit's standards. EP4 Inhibition assay was performed using cAMP-Gs HiRange kit (#62AM6PEB, Cisbio) following the manufacture's protocol and measured by Neo2 plate reader (BioTek, Winooski, Vt.). HTRF ratio (665/620) was converted to cAMP concentration using a cAMP standard.
# RAW 264.7 cells = assay: Boyden chamber transwell migration assay; format: cell-based, murine; settings: in the presence of Ang II; 2.5 μM, 12 hours
# Experimental: HUVECs were seeded in the lower chambers of the Transwells (#CLS3464, Sigma-Aldrich) and cultured up to 80% confluence before treatment with or without AngII (100 nM) for 6 hours in OptiMEM I reduced serum medium (#31985-070, Gibco). RAW 264.7 cells starved with OptiMEM I overnight were seeded (2×10^5 per well) in the upper chambers of the transwells and treated with vehicle (ethanol), OA (2.5 μM) or NO2—OA (2.5 μM) for additional 12 hours. Cells on the upper chamber were then removed by gently scraping with a cotton swab, and the membranes were fixed in 4% PFA for 15 min and stained with 0.1% crystal violet for 15 min at room temperature. Images were acquired by AMG Evos XI Core Imaging System. Quantification of the positively stained area was performed using Image J v1.52s.
# MMP2 = assay: Gelatin zymography in BMDMs, MMP2; format: cell-based, mouse; settings: 2.5 μM, 12 h
# Experimental: as §1
# (§2) Freshly differentiated BMDMs were cultured in the bone marrow macrophage-differentiation media until 80% confluence. […] Then, the supernatant was collected and centrifuged to remove any residual debris. Measurement of MMP2 and MMP9 activity was performed by running the supernatant (using detergent-free loading buffer) in 1% gelatin gel, followed by staining with Coomassie blue.
# MMP9 = assay: Gelatin zymography in BMDMs, MMP9; format: cell-based, mouse; settings: 2.5 μM, 12 h
# Experimental: as §1, §2
# T1 sequence (P35408 whole entry): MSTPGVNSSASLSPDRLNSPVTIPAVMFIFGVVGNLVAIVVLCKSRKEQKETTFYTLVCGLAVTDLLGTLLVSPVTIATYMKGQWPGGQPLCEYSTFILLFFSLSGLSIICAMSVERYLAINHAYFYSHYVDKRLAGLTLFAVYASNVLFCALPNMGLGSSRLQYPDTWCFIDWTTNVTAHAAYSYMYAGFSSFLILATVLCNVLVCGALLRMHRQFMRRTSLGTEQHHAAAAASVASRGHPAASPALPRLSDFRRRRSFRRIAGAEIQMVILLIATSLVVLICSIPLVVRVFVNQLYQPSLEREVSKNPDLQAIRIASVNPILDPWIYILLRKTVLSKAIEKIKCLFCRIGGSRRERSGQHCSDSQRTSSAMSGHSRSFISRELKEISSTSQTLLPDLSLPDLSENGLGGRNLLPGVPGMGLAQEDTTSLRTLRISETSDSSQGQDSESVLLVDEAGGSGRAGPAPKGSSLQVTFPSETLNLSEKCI
smiles,measurement,setting,value
"CCCCCCCCC(=CCCCCCCCC(=O)O)[N+](=O)[O-] [NO2—OA, 10-nitro-octadec-9-enoic acid]",expression of intercellular adhesion molecule 1 (Icam1),[1]; vs vehicle,not statistically significant
same,expression of MCP1 gene,[1]; vs vehicle control,significantly decreased
same,expression of vascular cell adhesion protein 1 (Vcam1) gene,[1]; vs vehicle control,significantly decreased
same,IC50,EP4 Gs-coupled receptor,2800 nM
same,endothelial-dependent macrophage migration,RAW 264.7 cells,significantly inhibits
same,MMP2 activity (gelatin zymography),MMP2,no significant changes
same,PGE2-upregulated MMP9 (gelatin zymography),MMP9,significantly diminished
